# Measured values as given in patent US8053475B2, “Preparation of the formaurindikarboxyl acid base and its derivations and use” (Vyzkumny Ustav Zivocisne Vyroby, V.V.I., priority 2007, dated 2011).
# System: Cryptosporidium parvum
# Assay: In vivo model of Tzipori (1998), modified: orally infected baby mice treated for 8 days
# Set-up: species or system C57B1/6 baby mice
# Details: aurintricarboxylic acid 50 and 100 mmol/kg/day orally in 2 equal portions at 12-hr intervals, suckling C57B1/6 mice infected with 100 000 oocysts
# Text: In vivo model designed by Tzipori (1998) was used in following modification: Three-day-old, SPF C57B1/6 baby mice (Velaz, Czech Republic) were randomly assigned to groups of 8-9 mice. The baby mice were caged with their mother in sterile microisolators equipped with filter tops under standard conditions. 4-day-old mice were orally infected with 100 000 oocysts and the treatment was initiated at the same time; the daily dose of aurintricarboxylic acid 50 and […] was divided into 2 equal portions and orally administered in 12-hr intervals. A control group received phosphate buffer saline, and paromomycin (100 mg/kg/day) was used as positive control. ATA was prepared fresh before each use by dissolving the drug in aqueous solution of sodium hydroxide or potassium hydroxide at a molar ratio of 1:3 (ATA:NaOH), or in dimethylsulfoxide. […] Intensity of infection was expressed as the number of oocysts in homogenized intestinal tract in the 9th day after infection. The experiment was repeated between 2006 and 2007 and always gave very similar results.
# The inihibition aurintricarboxylic acid on experimental Cryptosporidium parvum-infection in suckling C57B16 mice is graphed in FIG. 1.
smiles,measurement,value
O=C(O)C1=CC(=C(c2ccc(O)c(C(=O)O)c2)c2ccc(O)c(C(=O)O)c2)C=CC1=O [aurintricarboxylic acid],tolerability of the treatment (visible signs of toxicity),tolerated without any visible signs of toxicity
